According to patent US6495544B2, “Homoiminopiperidinyl hexanoic acid inhibitors of inducible nitric oxide synthase” (Pharmacia Corporation, priority 2000, dated 2002):

Assays:
hecNOS = target: T1, hecNOS (Homo sapiens, UniProt P29474); assay: Assay for time dependent inhibition, hecNOS; type: biochemical; details: 60 min preincubation, read-out: % inhibition of NOS activity, hecNOS
T1 construct: made in house; host or cells: Sf9 insect cells, baculovirus vector
Experimental: (§1) Nitric oxide synthase (NOS) activity is measured by monitoring the conversion of [^3H]-arginine to [^3H]-citrulline (Bredt and Snyder, Proc. Natl. Acad. Sci. U.S.A., 87, 682-685, 1990 and Misko et al, Eur. J. Pharm., 233, 119-125, 1993). Human inducible NOS (hiNOS), human endothelial constitutive NOS (hecNOS) and human neuronal constitutive NOS (hncNOS) are each cloned from RNA extracted from human tissue. The cDNA for human inducible NOS (hiNOS) is isolated from a lambda cDNA library made from RNA extracted from a colon sample from a patient with ulcerative colitis. The cDNA for human endothelial constitutive NOS (hecNOS) is isolated from a lambda cDNA library made from RNA extracted from human umbilical vein endothelial cells (HUVEC) and the cDNA for human neuronal constitutive NOS (hncNOS) is isolated from a lambda cDNA library made from RNA extracted from human cerebellum obtained from a cadaver. The recombinant enzymes are expressed in Sf9 insect cells using a baculovirus vector (Rodi et al, in The Biology of Nitric Oxide , Pt. 4: Enzymology Biochemistry and Immunology; Moncada, S., Feelisch, M., Busse, R., Higgs, E., Eds.; Portland Press Ltd.: London, 1995; pp 447-450). […] [3H]-Citrulline is separated by chromatography on Dowex 50W X-8 cation exchange resin and radioactivity determined with a liquid scintillation counter. […]

[1] = system: nitric oxide synthase induced by recombinant human IL-1β in human cartilage explants; assay: Human cartilage explant assay, nitrite production; type: cell-based; details: IL-1β stimulated, read-out: IC50, inhibition of nitrite production
Experimental: Bone pieces are rinsed twice with Dulbecco's Phosphate Buffered Saline (GibcoBRL) and once with Dulbecco's Modified Eagles Medium (GibcoBRL) and placed into a petri dish with phenol red free Minimum Essential Medium (MEM) (GibcoBRL). Cartilage was cut into small explants of approximately 25-45 mg in weight and one or two explants per well are placed into 48 well culture plates with 500 μL of culture media per well. The culture media was either a custom modification of Minimum Essential Medium(Eagle) with Earle's salts (GibcoBRL) prepared without L-Arginine, without L-Glutamine and without phenol red or a custom modification of serumless Neuman and Tytell (GibcoBRL) medium prepared without L-arginine, without insulin, without ascorbic acid, without L-glutamine and without phenol red. Both are supplemented before use with 100 μM L-Arginine (Sigma), 2 mM L-glutamine, 1×HL-1 supplement (BioWhittaker), […] ascorbic acid (Sigma) and 150 pg/ml recombinant human IL-1β (RD Systems) to induce nitric oxide synthase. Compounds are then added in 10 μL aliquots and the explants incubated at 37° C. with 5% CO2 for 18-24 hours. […] This supernatant is analyzed for nitrite with a fluorometric assay (Misko et al, Anal. Biochem., 214, 11-16, 1993). […] IC50 values (Table III) are determined from plotting the percent inhibition of nitrite production at six different concentrations of inhibitor.

[2] = system: inducible nitric oxide synthase; assay: In vivo assay, endotoxin-treated rats, plasma nitrite/nitrate; details: oral; for ED50: Rattus norvegicus, read-out: ED50, inhibition of LPS-induced increase in plasma nitrite/nitrate
Experimental: Compounds are administered orally 0.5-1 hours prior to LPS administration and plasma nitrite/nitrate levels are determined 5 hours following LPS administration.

[3] = target: T2, Human inducible NOS (hiNOS) (Homo sapiens, UniProt P35228); assay: Citrulline assay for nitric oxide synthase, hiNOS; type: biochemical; details: 30 μM L-arginine, 37° C., 15 minutes
T2 construct: made in house; host or cells: Sf9 insect cells, baculovirus vector
Experimental: as §1, with “447-450). Enzyme activity is isolated from soluble cell extracts and partially purified by DEAE-Sepharose chromatography. To measure NOS activity, 10 μL of enzyme is added to 40 μL of 50 mM Tris (pH 7.6) in the presence or absence of test compounds and the reaction initiated by the addition of 50 μL of a reaction mixture containing 5 mM Tris (pH 7.6), 2.0 mg/mL bovine serum albumin, 2.0 mM DTT, 4.0 mM CaCl2, 20 μM FAD, […] tetrahydrobiopterin, 0.4-2.0 mM NADPH and 60 μM L-arginine containing 0.9 μCi of L-[2,3-^3H]-arginine. The final concentration of L-arginine in the assay is 30 μM. For hecNOS or hncNOS, calmodulin is included at a final concentration of 40-100 nM.” for “447-450).”

[4] = target: T3, human neuronal constitutive NOS (hncNOS) (Homo sapiens, UniProt P29475); assay: Citrulline assay for nitric oxide synthase, hncNOS; type: biochemical; details: 30 μM L-arginine, 37° C., 15 minutes, calmodulin
T3 construct: made in house; host or cells: Sf9 insect cells, baculovirus vector
Experimental: as §1, with “447-450). Enzyme activity is isolated from soluble cell extracts and partially purified by DEAE-Sepharose chromatography. To measure NOS activity, 10 μL of enzyme is added to 40 μL of 50 mM Tris (pH 7.6) in the presence or absence of test compounds and the reaction initiated by the addition of 50 μL of a reaction mixture containing 5 mM Tris (pH 7.6), 2.0 mg/mL bovine serum albumin, 2.0 mM DTT, 4.0 mM CaCl2, 20 μM FAD, […] tetrahydrobiopterin, 0.4-2.0 mM NADPH and 60 μM L-arginine containing 0.9 μCi of L-[2,3-^3H]-arginine. The final concentration of L-arginine in the assay is 30 μM. For hecNOS or hncNOS, calmodulin is included at a final concentration of 40-100 nM.” for “447-450).”

hncNOS = target: T4, hncNOS (Homo sapiens, UniProt P29475); assay: Assay for time dependent inhibition, hncNOS; type: biochemical; details: 60 min preincubation
T4 construct: made in house; host or cells: Sf9 insect cells, baculovirus vector
T4 sequence (P29475 whole entry): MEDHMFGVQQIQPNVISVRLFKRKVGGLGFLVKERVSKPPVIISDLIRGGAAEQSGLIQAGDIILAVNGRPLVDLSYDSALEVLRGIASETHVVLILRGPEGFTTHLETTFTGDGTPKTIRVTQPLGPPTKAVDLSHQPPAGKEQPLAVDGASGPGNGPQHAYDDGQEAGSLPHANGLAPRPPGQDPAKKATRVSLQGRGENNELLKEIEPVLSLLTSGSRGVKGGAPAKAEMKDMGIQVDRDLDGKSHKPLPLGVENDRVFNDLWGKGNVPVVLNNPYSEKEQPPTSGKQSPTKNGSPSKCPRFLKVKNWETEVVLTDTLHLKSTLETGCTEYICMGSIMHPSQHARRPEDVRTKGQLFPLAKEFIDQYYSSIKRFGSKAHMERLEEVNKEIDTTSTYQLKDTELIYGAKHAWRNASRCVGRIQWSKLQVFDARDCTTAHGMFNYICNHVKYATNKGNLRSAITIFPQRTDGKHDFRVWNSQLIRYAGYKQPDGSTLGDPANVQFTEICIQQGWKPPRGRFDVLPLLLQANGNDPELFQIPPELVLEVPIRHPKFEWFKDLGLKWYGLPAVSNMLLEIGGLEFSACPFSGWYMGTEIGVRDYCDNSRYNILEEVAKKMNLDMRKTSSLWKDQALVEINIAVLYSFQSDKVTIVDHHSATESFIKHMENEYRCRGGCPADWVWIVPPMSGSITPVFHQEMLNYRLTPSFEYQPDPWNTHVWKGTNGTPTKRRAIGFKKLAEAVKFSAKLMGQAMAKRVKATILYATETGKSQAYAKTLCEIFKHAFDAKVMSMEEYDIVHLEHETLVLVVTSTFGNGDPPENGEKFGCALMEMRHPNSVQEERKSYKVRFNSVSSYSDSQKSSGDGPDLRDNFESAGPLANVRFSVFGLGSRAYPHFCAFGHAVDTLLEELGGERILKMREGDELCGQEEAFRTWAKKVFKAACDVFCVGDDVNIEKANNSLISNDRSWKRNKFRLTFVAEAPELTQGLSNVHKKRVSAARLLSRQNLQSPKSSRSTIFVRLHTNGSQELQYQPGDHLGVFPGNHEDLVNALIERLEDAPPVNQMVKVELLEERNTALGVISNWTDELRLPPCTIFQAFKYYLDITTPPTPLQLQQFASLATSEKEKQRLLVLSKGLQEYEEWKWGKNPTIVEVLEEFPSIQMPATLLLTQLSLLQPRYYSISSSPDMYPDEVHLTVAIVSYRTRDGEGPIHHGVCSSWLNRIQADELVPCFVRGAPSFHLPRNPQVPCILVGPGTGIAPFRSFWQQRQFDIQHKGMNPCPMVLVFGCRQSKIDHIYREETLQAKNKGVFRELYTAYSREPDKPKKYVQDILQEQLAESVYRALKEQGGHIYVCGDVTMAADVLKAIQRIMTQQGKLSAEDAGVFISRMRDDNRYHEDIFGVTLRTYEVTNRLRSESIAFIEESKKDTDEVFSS
Experimental: as §1, with “447-450). Enzyme activity is isolated from soluble cell extracts and partially purified by DEAE-Sepharose chromatography. To measure NOS activity, 10 μL of enzyme is added to 40 μL of 50 mM Tris (pH 7.6) in the presence or absence of test compounds and the reaction initiated by the addition of 50 μL of a reaction mixture containing 5 mM Tris (pH 7.6), 2.0 mg/mL bovine serum albumin, 2.0 mM DTT, 4.0 mM CaCl2, 20 μM FAD, […] tetrahydrobiopterin, 0.4-2.0 mM NADPH and 60 μM L-arginine containing 0.9 μCi of L-[2,3-^3H]-arginine. The final concentration of L-arginine in the assay is 30 μM. For hecNOS or hncNOS, calmodulin is included at a final concentration of 40-100 nM.” for “447-450).”

[5] = target: T5, human endothelial constitutive NOS (hecNOS) (Homo sapiens, UniProt P29474); assay: Citrulline assay for nitric oxide synthase, hecNOS; type: biochemical; details: 30 μM L-arginine, 37° C., 15 minutes, calmodulin
T5 construct: made in house; host or cells: Sf9 insect cells, baculovirus vector
Experimental: as §1, with “447-450). Enzyme activity is isolated from soluble cell extracts and partially purified by DEAE-Sepharose chromatography. To measure NOS activity, 10 μL of enzyme is added to 40 μL of 50 mM Tris (pH 7.6) in the presence or absence of test compounds and the reaction initiated by the addition of 50 μL of a reaction mixture containing 5 mM Tris (pH 7.6), 2.0 mg/mL bovine serum albumin, 2.0 mM DTT, 4.0 mM CaCl2, 20 μM FAD, […] tetrahydrobiopterin, 0.4-2.0 mM NADPH and 60 μM L-arginine containing 0.9 μCi of L-[2,3-^3H]-arginine. The final concentration of L-arginine in the assay is 30 μM. For hecNOS or hncNOS, calmodulin is included at a final concentration of 40-100 nM.” for “447-450).”

[6] = 0.5-1 hours prior to LPS, plasma 5 hours after LPS

T1 sequence (P29474 2-1203): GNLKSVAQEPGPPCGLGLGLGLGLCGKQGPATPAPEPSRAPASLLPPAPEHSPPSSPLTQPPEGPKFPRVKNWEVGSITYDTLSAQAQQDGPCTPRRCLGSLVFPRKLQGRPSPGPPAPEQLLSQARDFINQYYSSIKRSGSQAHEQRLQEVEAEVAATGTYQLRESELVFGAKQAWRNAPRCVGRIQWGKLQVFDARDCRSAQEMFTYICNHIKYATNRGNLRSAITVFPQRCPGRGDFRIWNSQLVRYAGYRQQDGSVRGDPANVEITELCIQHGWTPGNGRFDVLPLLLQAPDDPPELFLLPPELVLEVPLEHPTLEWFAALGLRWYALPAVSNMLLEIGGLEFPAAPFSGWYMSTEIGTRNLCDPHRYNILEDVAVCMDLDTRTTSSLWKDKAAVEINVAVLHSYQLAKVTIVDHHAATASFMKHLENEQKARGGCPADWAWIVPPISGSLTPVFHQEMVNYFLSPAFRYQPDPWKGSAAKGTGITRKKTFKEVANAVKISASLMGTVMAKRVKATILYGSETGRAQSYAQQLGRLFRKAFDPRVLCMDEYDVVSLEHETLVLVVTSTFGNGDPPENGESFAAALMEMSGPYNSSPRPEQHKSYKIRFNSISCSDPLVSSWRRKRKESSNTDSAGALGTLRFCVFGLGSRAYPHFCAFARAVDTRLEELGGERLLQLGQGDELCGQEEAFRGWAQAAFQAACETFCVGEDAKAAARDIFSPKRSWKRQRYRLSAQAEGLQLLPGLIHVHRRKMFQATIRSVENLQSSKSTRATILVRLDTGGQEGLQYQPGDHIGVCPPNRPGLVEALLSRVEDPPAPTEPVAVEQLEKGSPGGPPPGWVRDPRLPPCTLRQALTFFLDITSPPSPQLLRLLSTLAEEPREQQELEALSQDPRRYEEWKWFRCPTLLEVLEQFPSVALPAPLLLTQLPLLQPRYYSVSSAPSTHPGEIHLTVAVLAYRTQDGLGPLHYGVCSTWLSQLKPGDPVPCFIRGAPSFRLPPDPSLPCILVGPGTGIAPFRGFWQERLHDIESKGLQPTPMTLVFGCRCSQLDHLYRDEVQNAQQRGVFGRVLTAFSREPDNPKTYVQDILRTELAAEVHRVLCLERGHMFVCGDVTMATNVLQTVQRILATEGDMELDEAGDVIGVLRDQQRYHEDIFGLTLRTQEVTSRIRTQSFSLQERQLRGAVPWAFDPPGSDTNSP

SMILES | inhibition at 33 µM (hecNOS) | IC50 [1] | ED50 [2, 6] | effect on LPS-induced increase in plasma nitrite/nitrate levels [2] | ED50, inhibition of LPS-induced increase in plasma nitrite/nitrate ([2]; 0.5-1 hours prior to LPS, plasma 5 hours after LPS, trihydrate hydrochloride) | IC50 [3] | IC50 [4] | % inhibition of NOS activity, hncNOS (hncNOS; 5 μM) | IC50 [5] | % inhibition of NOS activity, hncNOS (hncNOS; 13 μM) | % inhibition of NOS activity, hncNOS (hncNOS; 3 μM)
Cl.N=C1CCCC[C@H](CCCC[C@@H](N)C(=O)O)N1.O.O.O [Example 1, (αR,2S)-α-aminohexahydro-7-imino-1H-azepine-2-hexanoic acid, trihydrate hydrochloride] | 11% | < 10 µM | < 3 mg/kg | inhibited the LPS-induced increase in plasma nitrite/nitrate levels in a dose dependent manner | <3 mg/kg | < 3 µM | > 3 µM | 0% @ 5 μM @ 60 min | > 30 µM | – | –
Cl.N=C1CCCC[C@@H](CCCC[C@H](N)C(=O)O)N1.O.O.O [Example 2, (αS,2R)-α-aminohexahydro-7-imino-1H-azepine-2-hexanoic acid, trihydrate hydrochloride] | – | – | – | – | – | < 5 µM | > 10 µM | – | > 150 µM | 0% @ 13 μM @ 60 min | –
Cl.N=C1CCCC[C@H](CCCC[C@H](N)C(=O)O)N1.O.O.O [Example 4, (αS,2S)-α-aminohexahydro-7-imino-1H-azepine-2-hexanoic acid, trihydrate hydrochloride] | – | < 10 µM | < 5 mg/kg | – | – | < 3 µM | > 3 µM | – | > 15 µM | – | 0% @ 3 μM @ 60 min
